Results on 34 compounds are retold here after patent US9247759B2, “Identification of human T2R receptors that respond to bitter compounds that elicit the bitter taste in compositions, and the use thereof in assays to identify compounds that inhibit (block) bitter taste in compositions and use thereof” (SENOMYX, INC., priority 2007, dated 2016).

The target in the first assay is hT2R8 (Homo sapiens (Human), UniProt Q9NYW2). The experiment in a line: hT2R8 antagonist high-throughput FLIPR assay, stable cell line with G16g44, agonist andrographolide. The class given is cell-based. As to conditions: Table A; read-out: hT2R8 IC50. An outline of the steps: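 Antagonist screen: compounds co-applied with agonist andrographolide at 200 μM, a dose giving 70–80% of maximal hT2R8 activation. Fluorescence measured by FLIPR in a stable HEK293 line expressing both hT2R8 and the promiscuous G16g44 protein.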
Sequence of hT2R8 (Q9NYW2 whole entry): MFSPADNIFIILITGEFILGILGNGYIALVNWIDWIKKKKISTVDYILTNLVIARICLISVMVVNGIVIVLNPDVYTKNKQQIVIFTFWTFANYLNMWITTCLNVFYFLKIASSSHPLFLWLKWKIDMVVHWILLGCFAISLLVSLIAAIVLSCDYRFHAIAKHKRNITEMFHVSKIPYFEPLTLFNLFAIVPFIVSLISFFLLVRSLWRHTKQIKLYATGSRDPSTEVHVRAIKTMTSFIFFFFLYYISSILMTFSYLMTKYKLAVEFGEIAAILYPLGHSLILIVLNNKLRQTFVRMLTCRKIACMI
On to `COc1ccccc1C(=O)Nc1cnn(Cc2c(C)noc2C)c1` [Example 4-19, N-(1-((3,5-dimethylisoxazol-4-yl)methyl)-1H-pyrazol-4-yl)-2-methoxybenzamide], for which the IC50 stood at 0.39 µM. Still for that read-out and setting: with `Cc1noc(C)c1Cn1cc(NC(=O)c2cccn2C)cn1` [Example 4-49, N-(1-((3,5-dimethylisoxazol-4-yl)methyl)-1H-pyrazol-4-yl)-1-methyl-1H-pyrrole-2-carboxamide] the figure was 3.4 µM. Still for that read-out and setting: with `COc1ccccc1NC(=S)Nc1cnn(Cc2c(C)noc2C)c1` [Example 4-106, 1-(1-((3,5-dimethylisoxazol-4-yl)methyl)-1H-pyrazol-4-yl)-3-(2-methoxyphenyl)thiourea] the figure was 2.61 µM. Still for that read-out and setting: with `Cc1noc(C)c1Cn1cc(NC(=O)CCc2ccccc2)cn1` [Example 4-55, N-(1-((3,5-dimethylisoxazol-4-yl)methyl)-1H-pyrazol-4-yl)-3-phenylpropanamide] the figure was 0.49 µM. Turning to `Cc1noc(C)c1Cn1cc(NC(=S)NCc2ccccc2)cn1` [Example 4-110, 1-benzyl-3-(1-((3,5-dimethylisoxazol-4-yl)methyl)-1H-pyrazol-4-yl)thiourea], the 50% inhibitory concentration (IC50) was 1.1 µM. Consider `Cc1noc(C)c1Cn1cc(NC(=O)c2cc3c(cc2Br)OCCO3)cn1` [Example 4-89, 7-bromo-N-(1-((3,5-dimethylisoxazol-4-yl)methyl)-1H-pyrazol-4-yl)-2,3-dihydrobenzo[b][1,4]dioxine-6-carboxamide], for which the IC50 was 0.3 µM. In the case of `COc1cc(C(=O)Nc2cnn(Cc3c(C)noc3C)c2)ccc1O` [Example 4-20, N-(1-((3,5-dimethylisoxazol-4-yl)methyl)-1H-pyrazol-4-yl)-4-hydroxy-3-methoxybenzamide], the IC50 was determined as 0.48 µM. The same measure, in the same setting: as for `Cc1cc2cc(C(=O)Nc3cnn(Cc4c(C)noc4C)c3)ccc2o1` [Example 4-75, N-(1-((3,5-dimethylisoxazol-4-yl)methyl)-1H-pyrazol-4-yl)-2-methylbenzofuran-5-carboxamide], the figure is 2.1 µM; as for `COc1cc(OC)cc(C(=O)Nc2cnn(Cc3c(C)noc3C)c2)c1` [Example 4-18, N-(1-((3,5-dimethylisoxazol-4-yl)methyl)-1H-pyrazol-4-yl)-3,5-dimethoxybenzamide], 0.28 µM; as for `COc1cc(C(=O)Nc2cnn(Cc3c(C)noc3C)c2)ccc1C` [Example 4-74, N-(1-((3,5-dimethylisoxazol-4-yl)methyl)-1H-pyrazol-4-yl)-3-methoxy-4-methylbenzamide], 2.2 µM.

In the case of `COc1cccc(C(=O)Nc2cnn(Cc3c(C)noc3C)c2)c1OC` [Example 4-25, N-(1-((3,5-dimethylisoxazol-4-yl)methyl)-1H-pyrazol-4-yl)-2,3-dimethoxybenzamide], the IC50 was 0.61 µM. Same read-out and setting: with `COC(C(=O)Nc1cnn(Cc2c(C)noc2C)c1)c1ccccc1` (stereo not drawn) [Example 4-43, N-(1-((3,5-dimethylisoxazol-4-yl)methyl)-1H-pyrazol-4-yl)-2-methoxy-2-phenylacetamide] the figure was 3.43 µM. Turning to `CO[C@@H](C(=O)Nc1cnn(Cc2c(C)noc2C)c1)c1ccccc1` [Example 4-68, (R)-N-(1-((3,5-dimethylisoxazol-4-yl)methyl)-1H-pyrazol-4-yl)-2-methoxy-2-phenylacetamide], the IC50 is 5 µM.

The assay is the same for the next values; noted with them: read-out: IC50 on hT2R8 bitter receptor.
On to `Cc1noc(C)c1CN1C(=O)N(c2cnn(Cc3c(C)noc3C)c2)C(=O)C1(C)C` [Example 12-21, 1-((3,5-dimethylisoxazol-4-yl)methyl)-3-(1-((3,5-dimethylisoxazol-4-yl)methyl)-1H-pyrazol-4-yl)-5,5-dimethylimidazolidine-2,4-dione], for which the IC50 was 0.08 µM. For `Cc1noc(C)c1Cn1cc(N2C(=O)CN(Cc3cccc(CO)n3)C2=O)cn1` [Example 10-71, 3-(1-((3,5-dimethylisoxazol-4-yl)methyl)-1H-pyrazol-4-yl)-1-((6-(hydroxymethyl)pyridin-2-yl)methyl)imidazolidine-2,4-dione], the IC50 came out at 0.72 µM. Still for that read-out and setting: as for `Cc1noc(C)c1Cn1cc(N2C(=O)CN(Cc3ccccn3)C2=O)cn1` [Example 10-54, 3-(1-((3,5-dimethylisoxazol-4-yl)methyl)-1H-pyrazol-4-yl)-1-(pyridin-2-ylmethyl)imidazolidine-2,4-dione], the figure is 0.68 µM; as for `COc1cc(C(=O)Nc2cnn(Cc3c(C)noc3C)c2)cc2c1OC(C)O2` (stereo not drawn) [Example 4-94, N-(1-((3,5-dimethylisoxazol-4-yl)methyl)-1H-pyrazol-4-yl)-7-methoxy-2-methylbenzo[d][1,3]dioxole-5-carboxamide], 0.7 µM. On the same count and under the same terms, as for `COc1ccc(CN2C(=O)N(c3cnn(Cc4c(C)noc4C)c3)C(=O)C23CC3)cc1O` [Example 12-12, 6-(1-((3,5-dimethylisoxazol-4-yl)methyl)-1H-pyrazol-4-yl)-4-(3-hydroxy-4-methoxybenzyl)-4,6-diazaspiro[2.4]heptane-5,7-dione], the figure is 0.02 µM.

For the compound `Cc1noc(C)c1Cn1cc(NCc2ccccc2C#N)cn1` [Example 9-2, 2-((1-((3,5-dimethylisoxazol-4-yl)methyl)-1H-pyrazol-4-ylamino)methyl)benzonitrile], the IC50 is more than 30 µM. Same read-out and setting: as for `Cc1noc(C)c1Cn1cnc(NC(=O)c2ccc3c(c2)OCO3)c1` [Example 10-40, N-(1-((3,5-dimethylisoxazol-4-yl)methyl)-1H-imidazol-4-yl)benzo[d][1,3]dioxole-5-carboxamide], the figure is 12.1 µM; as for `COc1cccc(CCN2CC(=O)N(c3cnn(Cc4c(C)noc4C)c3)C2=O)c1` [Example 10-85, 3-(1-((3,5-dimethylisoxazol-4-yl)methyl)-1H-pyrazol-4-yl)-1-(3-methoxyphenethyl)imidazolidine-2,4-dione], 0.16 µM.

Consider `Cc1noc(C)c1Cn1cc(N2C(=O)N(Cc3cccc(O)c3)C3(CCC3)C2=O)cn1` [Example 12-4, 7-(1-((3,5-dimethylisoxazol-4-yl)methyl)-1H-pyrazol-4-yl)-5-(3-hydroxybenzyl)-5,7-diazaspiro[3.4]octane-6,8-dione], for which the IC50 was 0.03 µM.

As to `Cc1noc(C)c1Cn1cc(N2C(=O)N(Cc3ccc(F)cc3)C(C)(C)C2=O)cn1` [Example 12-29, 3-(1-((3,5-dimethylisoxazol-4-yl)methyl)-1H-pyrazol-4-yl)-1-(4-fluorobenzyl)-5,5-dimethylimidazolidine-2,4-dione], the IC50 was determined as 0.08 µM.

The same assay, now with this note: table after Example 10-97; read-out: hT2R8 IC50.
In the case of `Cc1noc(C)c1Cn1cc(N2C(=O)CN(Cc3cccc(CO)n3)C2=O)cn1` [Example 10-71, 3-(1-((3,5-dimethylisoxazol-4-yl)methyl)-1H-pyrazol-4-yl)-1-((6-(hydroxymethyl)pyridin-2-yl)methyl)imidazolidine-2,4-dione], the IC50 was 0.721 µM.

On to `Cc1noc(C)c1Cn1cc(N2C(=O)CN(Cc3ccccn3)C2=O)cn1` [Example 10-54, 3-(1-((3,5-dimethylisoxazol-4-yl)methyl)-1H-pyrazol-4-yl)-1-(pyridin-2-ylmethyl)imidazolidine-2,4-dione], for which the IC50 turned out to be 0.609 µM. Still for that read-out and setting: as for `Cc1noc(C)c1Cn1cc(N2C(=O)CN(Cc3cccc(C#N)c3)C2=O)cn1` [Example 10-25, 3-((3-(1-((3,5-dimethylisoxazol-4-yl)methyl)-1H-pyrazol-4-yl)-2,4-dioxoimidazolidin-1-yl)methyl)benzonitrile], the figure is 1 µM. Still for that read-out and setting: with `COc1cccc(CCN2CC(=O)N(c3cnn(Cc4c(C)noc4C)c3)C2=O)c1` [Example 10-85, 3-(1-((3,5-dimethylisoxazol-4-yl)methyl)-1H-pyrazol-4-yl)-1-(3-methoxyphenethyl)imidazolidine-2,4-dione] the figure was 0.158 µM. On the same count and under the same terms, with `Cc1noc(C)c1Cn1cc(N2C(=O)CN(Cc3ccccc3[N+](=O)[O-])C2=O)cn1` [Example 10-23, 3-(1-((3,5-dimethylisoxazol-4-yl)methyl)-1H-pyrazol-4-yl)-1-(2-nitrobenzyl)imidazolidine-2,4-dione] the figure was 0.081 µM.

Staying with this assay, now noted: table after Example 12-37; read-out: hT2R8 IC50.
`COC(=O)c1ccc(CN2C(=O)N(c3cnn(Cc4c(C)noc4C)c3)C(=O)C2(C)C)cc1` [Example 12-57, methyl 4-((3-(1-((3,5-dimethylisoxazol-4-yl)methyl)-1H-pyrazol-4-yl)-5,5-dimethyl-2,4-dioxoimidazolidin-1-yl)methyl)benzoate]: the IC50 is 0.23 µM. Still for that read-out and setting: with `Cc1noc(C)c1Cn1cc(N2C(=O)N(CCO)C(C)(C)C2=O)cn1` [Example 12-77, 3-(1-((3,5-dimethylisoxazol-4-yl)methyl)-1H-pyrazol-4-yl)-1-(2-hydroxyethyl)-5,5-dimethylimidazolidine-2,4-dione] the figure was 0.56 µM; with `Cc1noc(C)c1Cn1cc(N2C(=O)N(Cc3ccccc3F)C(C)(C)C2=O)cn1` [Example 12-45, 3-(1-((3,5-dimethylisoxazol-4-yl)methyl)-1H-pyrazol-4-yl)-1-(2-fluorobenzyl)-5,5-dimethylimidazolidine-2,4-dione], 0.11 µM; with `COC(=O)c1cccc(CN2C(=O)N(c3cnn(Cc4c(C)noc4C)c3)C(=O)C2(C)C)c1` [Example 12-55], 0.22 µM. The same measure, in the same setting: as for `Cc1noc(C)c1Cn1cc(N2C(=O)N(Cc3cccc(C(=O)O)c3)C(C)(C)C2=O)cn1` [Example 12-73, 3-((3-(1-((3,5-dimethylisoxazol-4-yl)methyl)-1H-pyrazol-4-yl)-5,5-dimethyl-2,4-dioxoimidazolidin-1-yl)methyl)benzoic acid], the figure is 0.46 µM.

Turning to `Cc1noc(C)c1Cn1cc(N2C(=O)N(Cc3ccc(O)cc3)C(C)(C)C2=O)cn1` [Example 12-38, 3-(1-((3,5-dimethylisoxazol-4-yl)methyl)-1H-pyrazol-4-yl)-1-(4-hydroxybenzyl)-5,5-dimethylimidazolidine-2,4-dione], the IC50 was determined as 0.07 µM. Still for that read-out and setting: with `Cc1ccc(CN2C(=O)N(c3cnn(Cc4c(C)noc4C)c3)C(=O)C2(C)C)c(C)c1` [Example 12-86, 1-(2,4-dimethylbenzyl)-3-(1-((3,5-dimethylisoxazol-4-yl)methyl)-1H-pyrazol-4-yl)-5,5-dimethylimidazolidine-2,4-dione] the figure was 1.89 µM; with `Cc1noc(C)c1Cn1cc(N2C(=O)N(Cc3cc(F)ccc3F)C(C)(C)C2=O)cn1` [Example 12-59, 1-(2,5-difluorobenzyl)-3-(1-((3,5-dimethylisoxazol-4-yl)methyl)-1H-pyrazol-4-yl)-5,5-dimethylimidazolidine-2,4-dione], 0.24 µM.

For `Cc1noc(C)c1Cn1cc(N2C(=O)N(Cc3ccc4c(c3)OCCO4)C(C)(C)C2=O)cn1` [Example 12-62, 1-((2,3-dihydrobenzo[b][1,4]dioxin-6-yl)methyl)-3-(1-((3,5-dimethylisoxazol-4-yl)methyl)-1H-pyrazol-4-yl)-5,5-dimethylimidazolidine-2,4-dione], the IC50 turned out to be 0.27 µM.

The assay is the same for the next values; noted with them: unit uM; read-out: IC50 on hT2R08 bitter receptor.
In the case of `Cc1noc(C)c1Cn1cc(N2C(=O)CN(Cc3cccc(C#N)c3)C2=O)cn1` [Example 10-25, 3-((3-(1-((3,5-dimethylisoxazol-4-yl)methyl)-1H-pyrazol-4-yl)-2,4-dioxoimidazolidin-1-yl)methyl)benzonitrile], the IC50 came to 1 µM. Same read-out and setting: as for `Cc1noc(C)c1Cn1cc(N2C(=O)CN(Cc3ccccc3[N+](=O)[O-])C2=O)cn1` [Example 10-23, 3-(1-((3,5-dimethylisoxazol-4-yl)methyl)-1H-pyrazol-4-yl)-1-(2-nitrobenzyl)imidazolidine-2,4-dione], the figure is 0.07 µM.

Usually IC50 stands for the concentration that inhibits the measured activity by half.
